Measurements reported in ChEMBL document CHEMBL2406999, “Vialinin A is a ubiquitin-specific peptidase inhibitor” (Bioorg Med Chem Lett, 2013).
pIC50, pKi: −log10 of the molar value. Calls of active or inactive are those of the source. No cut-off for these calls is given here.

How the values were obtained:
[1] = molecular target: Cathepsin B (Homo sapiens) (UniProt P07858); assay: Inhibition of cathepsin B (unknown origin) at 6.3 uM after 20 mins by fluorometric analysis
[2] = molecular target: Calpain1/2 (Homo sapiens) (UniProt P17655+P07384); assay: Inhibition of calpain1/2 (unknown origin) using Suc-LLVY-AMC as substrate at 6.3 uM after 20 mins by fluorometric analysis; type: protein assay
[3] = molecular target: T1, Ubiquitin carboxyl-terminal hydrolase 2 (Homo sapiens) (UniProt O75604); assay: Inhibition of human USP2 using Ub-AMC as substrate at 1 to 30 uM after 60 mins by fluorometric analysis
T1 sequence (whole entry): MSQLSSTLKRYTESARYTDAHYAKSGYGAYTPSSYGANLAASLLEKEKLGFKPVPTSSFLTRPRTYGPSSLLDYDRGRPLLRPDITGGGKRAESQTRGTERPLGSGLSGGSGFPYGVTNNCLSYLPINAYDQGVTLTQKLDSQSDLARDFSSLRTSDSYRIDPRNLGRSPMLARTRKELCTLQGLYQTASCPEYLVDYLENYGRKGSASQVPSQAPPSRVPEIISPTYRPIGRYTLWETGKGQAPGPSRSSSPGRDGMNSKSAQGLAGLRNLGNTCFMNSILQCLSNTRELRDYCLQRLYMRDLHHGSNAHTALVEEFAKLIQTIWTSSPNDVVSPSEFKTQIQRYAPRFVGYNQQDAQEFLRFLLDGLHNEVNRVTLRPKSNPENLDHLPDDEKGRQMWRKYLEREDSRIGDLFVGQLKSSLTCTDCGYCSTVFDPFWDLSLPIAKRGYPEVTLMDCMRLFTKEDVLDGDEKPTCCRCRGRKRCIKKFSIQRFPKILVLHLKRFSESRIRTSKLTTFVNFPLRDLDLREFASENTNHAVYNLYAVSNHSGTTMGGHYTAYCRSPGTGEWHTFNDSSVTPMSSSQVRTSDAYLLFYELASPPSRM

[4] = molecular target: T2, Ubiquitin carboxyl-terminal hydrolase isozyme L3 (Homo sapiens) (UniProt P15374); assay: Inhibition of human UCH-L3 using Ub-AMC as substrate at 1 to 30 uM after 60 mins by fluorometric analysis
T2 sequence (whole entry): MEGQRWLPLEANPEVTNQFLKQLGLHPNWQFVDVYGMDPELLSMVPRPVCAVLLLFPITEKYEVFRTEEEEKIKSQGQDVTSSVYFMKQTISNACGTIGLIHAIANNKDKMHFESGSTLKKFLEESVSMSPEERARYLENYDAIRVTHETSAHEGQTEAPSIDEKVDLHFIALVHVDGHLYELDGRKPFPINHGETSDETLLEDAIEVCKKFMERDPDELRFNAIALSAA

[5] = molecular target: T3, Ubiquitin carboxyl-terminal hydrolase 5 (Homo sapiens, UniProt P45974); assay: Competitive inhibition of wild type human USP5 expressed in Escherichia coli BL21(DE3) using Ub-AMC as substrate
T3 sequence (P45974 whole entry): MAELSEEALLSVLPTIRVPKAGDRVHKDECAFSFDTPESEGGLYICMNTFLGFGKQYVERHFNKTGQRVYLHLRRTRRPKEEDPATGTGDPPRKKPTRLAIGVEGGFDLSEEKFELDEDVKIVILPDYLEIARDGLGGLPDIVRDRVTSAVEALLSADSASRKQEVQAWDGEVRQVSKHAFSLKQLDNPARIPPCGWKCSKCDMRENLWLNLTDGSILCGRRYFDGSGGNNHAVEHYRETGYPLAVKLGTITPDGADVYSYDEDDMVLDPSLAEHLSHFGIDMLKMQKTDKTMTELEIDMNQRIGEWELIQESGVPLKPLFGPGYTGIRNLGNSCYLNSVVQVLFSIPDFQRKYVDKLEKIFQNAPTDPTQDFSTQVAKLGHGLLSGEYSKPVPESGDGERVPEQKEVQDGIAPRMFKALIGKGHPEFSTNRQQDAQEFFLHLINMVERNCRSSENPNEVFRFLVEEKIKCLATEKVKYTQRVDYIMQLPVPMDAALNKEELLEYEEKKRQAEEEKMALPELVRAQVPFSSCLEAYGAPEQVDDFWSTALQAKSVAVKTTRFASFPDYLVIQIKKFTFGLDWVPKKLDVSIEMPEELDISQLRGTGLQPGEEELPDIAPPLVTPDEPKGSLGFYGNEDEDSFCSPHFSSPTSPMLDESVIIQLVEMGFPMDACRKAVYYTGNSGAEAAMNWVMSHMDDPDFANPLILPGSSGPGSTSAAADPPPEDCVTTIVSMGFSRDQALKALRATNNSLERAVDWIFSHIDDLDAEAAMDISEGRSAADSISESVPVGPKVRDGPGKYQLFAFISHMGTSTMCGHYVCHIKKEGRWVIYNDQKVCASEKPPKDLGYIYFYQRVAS

[6] = molecular target: T3, Ubiquitin carboxyl-terminal hydrolase 5; assay: Inhibition of wild type human USP5 expressed in Escherichia coli BL21(DE3) using Ub-AMC as substrate after 60 mins by fluorometric analysis
[7] = molecular target: T4, Ubiquitin carboxyl-terminal hydrolase 5 (Homo sapiens) (UniProt P45974); assay: Inhibition of wild type human USP5 expressed in Escherichia coli BL21(DE3) using K48-linked tetraubiquitin as substrate assessed as substrate hydrolysis at 10 uM after 15 mins by SDS-PAGE analysis
T4 sequence (whole entry): T3 sequence (P45974 whole entry)

Chain of Calpain1/2 (Homo sapiens) (P07384 whole entry, looked up): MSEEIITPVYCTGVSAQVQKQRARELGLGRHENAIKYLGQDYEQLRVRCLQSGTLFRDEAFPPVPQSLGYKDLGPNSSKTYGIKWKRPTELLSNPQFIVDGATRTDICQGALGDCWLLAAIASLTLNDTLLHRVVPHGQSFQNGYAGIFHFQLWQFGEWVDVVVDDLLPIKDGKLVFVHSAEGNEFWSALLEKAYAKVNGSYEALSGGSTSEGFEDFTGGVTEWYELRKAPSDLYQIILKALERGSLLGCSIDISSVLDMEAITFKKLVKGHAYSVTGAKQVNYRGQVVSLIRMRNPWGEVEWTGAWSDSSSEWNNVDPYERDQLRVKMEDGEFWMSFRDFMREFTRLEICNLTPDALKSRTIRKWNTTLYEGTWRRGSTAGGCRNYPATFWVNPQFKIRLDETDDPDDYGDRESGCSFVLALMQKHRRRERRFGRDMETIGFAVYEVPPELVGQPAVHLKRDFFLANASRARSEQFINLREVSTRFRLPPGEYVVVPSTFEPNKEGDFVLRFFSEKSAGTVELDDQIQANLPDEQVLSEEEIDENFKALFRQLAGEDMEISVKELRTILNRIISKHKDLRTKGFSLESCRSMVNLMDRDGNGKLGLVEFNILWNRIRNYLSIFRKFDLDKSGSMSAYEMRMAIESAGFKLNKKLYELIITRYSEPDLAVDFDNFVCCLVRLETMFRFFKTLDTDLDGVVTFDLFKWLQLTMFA
Chain of Calpain1/2 (Homo sapiens) (P17655 whole entry, looked up): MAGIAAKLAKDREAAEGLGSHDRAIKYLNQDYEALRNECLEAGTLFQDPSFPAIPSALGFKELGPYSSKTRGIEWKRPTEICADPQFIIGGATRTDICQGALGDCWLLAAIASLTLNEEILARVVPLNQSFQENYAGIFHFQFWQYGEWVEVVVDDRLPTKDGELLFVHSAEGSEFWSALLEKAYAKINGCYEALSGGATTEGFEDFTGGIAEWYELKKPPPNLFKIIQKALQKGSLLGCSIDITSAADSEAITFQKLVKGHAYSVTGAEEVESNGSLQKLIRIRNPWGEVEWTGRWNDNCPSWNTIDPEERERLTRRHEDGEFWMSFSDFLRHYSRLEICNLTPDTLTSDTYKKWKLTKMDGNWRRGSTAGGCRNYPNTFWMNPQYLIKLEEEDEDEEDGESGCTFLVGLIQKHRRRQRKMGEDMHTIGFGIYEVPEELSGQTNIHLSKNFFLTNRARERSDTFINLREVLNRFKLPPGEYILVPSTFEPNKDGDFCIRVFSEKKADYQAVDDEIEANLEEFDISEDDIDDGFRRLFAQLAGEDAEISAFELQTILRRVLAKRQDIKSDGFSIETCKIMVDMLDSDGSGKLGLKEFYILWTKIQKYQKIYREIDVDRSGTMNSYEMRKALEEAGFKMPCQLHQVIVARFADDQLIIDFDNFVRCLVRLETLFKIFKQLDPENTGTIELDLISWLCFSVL

O=C(Cc1ccccc1)Oc1c(OC(=O)Cc2ccccc2)c(-c2ccc(O)cc2)c(O)c(O)c1-c1ccc(O)cc1 [VIALININ A]
inhibition [1]: inactive
inhibition [2]: inactive
inhibition [3]: inactive
inhibition [4]: inactive
pKi [5]: 4.90
pIC50 [6]: 5.23
pKi [6]: 5.40
inhibition [7]: Active
